The target in this assay is T1, LHRH (Rattus norvegicus, UniProt P30969).
T1 construct: endogenous in cells; host or cells: rat pituitary cells (own knowledge of the cited Haviv 1989 method)
T1 sequence (P30969 1-327): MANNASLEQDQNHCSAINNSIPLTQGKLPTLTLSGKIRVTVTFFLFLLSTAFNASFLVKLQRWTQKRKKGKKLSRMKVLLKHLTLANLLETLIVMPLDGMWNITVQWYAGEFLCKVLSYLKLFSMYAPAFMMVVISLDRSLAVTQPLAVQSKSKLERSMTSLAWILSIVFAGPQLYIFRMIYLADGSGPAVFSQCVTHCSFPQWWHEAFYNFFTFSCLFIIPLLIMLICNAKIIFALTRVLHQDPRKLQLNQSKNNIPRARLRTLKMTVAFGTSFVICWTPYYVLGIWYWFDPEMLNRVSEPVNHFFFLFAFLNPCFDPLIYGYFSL
The assay can be described thus: in vitro test for LHRH antagonist potency (pA2). Conditions: negative logarithm of the antagonist concentration required to shift the response curve produced by the agonist leuprolide to two-fold higher concentration. The class given is cell-based. A digest of the protocol: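 Antagonism read against the agonist leuprolide on rat LHRH receptor; value is pA2, the −log of antagonist concentration that doubles the agonist concentration needed for the same response.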

Non-standard residues stand in square brackets, D forms with d. Residues, ends and D or L forms follow the SMILES beside them. *: point of attachment. dPhe(4-Cl) = N[C@H](Cc1ccc(Cl)cc1)C(=O)O; d2Nal = N[C@H](Cc1ccc2ccccc2c1)C(=O)O; Lys(iPr) = CC(C)NCCCC[C@H](N)C(=O)O; NMeY = CN[C@@H](Cc1ccc(O)cc1)C(=O)O; X10 = Cc1ccc(S(=O)(=O)NNC(=O)*)cc1; dCit = NC(=O)NCCC[C@@H](N)C(=O)O; d3Pal = N[C@H](Cc1cccnc1)C(=O)O; Isonicotinoyl = O=C(c1ccncc1)*; Salicyloyl = O=C(c1ccccc1O)*; Nicotinoyl = O=C(c1cccnc1)*; Tos = Cc1ccc(S(=O)(=O)*)cc1; azaGly = NNC(=O)O

Consider 6 molecules from US5502035A, “N-terminus modified analogs of LHRH” (Tap Holdings Inc., priority 1994, dated 1996).

As to `CC(C)C[C@H](NC(=O)[C@@H](CCCCNC(=O)c1cccnc1)NC(=O)[C@H](Cc1ccc(O)cc1)N(C)C(=O)[C@H](CO)NC(=O)[C@@H](Cc1cccnc1)NC(=O)[C@@H](Cc1ccc(Cl)cc1)NC(=O)[C@@H](Cc1ccc2ccccc2c1)NC(=O)NNC(=O)c1cccnc1)C(=O)N[C@@H](CCCCNC(C)C)C(=O)N1CCC[C@H]1C(=O)N[C@H](C)C(N)=O` [Example 37b, N-Nicotinyl-Azagly-D2Nal-D4ClPhe-D3Pal-Ser-NMeTyr-DLys(Nic)-Leu-Lys(Isp)-Pro-DAlaNH2] (Nicotinoyl-[azaGly][d2Nal][dPhe(4-Cl)][d3Pal]S[NMeY][dK](Nicotinoyl)L[Lys(iPr)]P[dA]-NH2), the Kb is 0.0158 nM.
To `CC(C)C[C@H](NC(=O)[C@@H](CCCCNC(=O)c1cccnc1)NC(=O)[C@H](Cc1ccc(O)cc1)N(C)C(=O)[C@H](CO)NC(=O)[C@@H](Cc1cccnc1)NC(=O)[C@@H](Cc1ccc(Cl)cc1)NC(=O)[C@@H](Cc1ccc2ccccc2c1)NC(=O)NNC(=O)c1ccccc1O)C(=O)N[C@@H](CCCCNC(C)C)C(=O)N1CCC[C@H]1C(=O)N[C@H](C)C(N)=O` [Example 37c, N-Salicyl-Azagly-D2Nal-D4ClPhe-D3Pal-Ser-NMeTyr-DLys(Nic)-Leu-Lys(Isp)-Pro-DAlaNH2] (Salicyloyl-[azaGly][d2Nal][dPhe(4-Cl)][d3Pal]S[NMeY][dK](Nicotinoyl)L[Lys(iPr)]P[dA]-NH2) belongs 0.0251 nM.
For the molecule `CC(C)C[C@H](NC(=O)[C@@H](CCCCNC(=O)c1cccnc1)NC(=O)[C@H](Cc1ccc(O)cc1)N(C)C(=O)[C@H](CO)NC(=O)[C@@H](Cc1cccnc1)NC(=O)[C@@H](Cc1ccc(Cl)cc1)NC(=O)[C@@H](Cc1ccc2ccccc2c1)NC(=O)NNC(=O)c1ccncc1)C(=O)N[C@@H](CCCCNC(C)C)C(=O)N1CCC[C@H]1C(=O)N[C@H](C)C(N)=O` [Example 37d, N-Isonicotinyl-Azagly-D2Nal-D4ClPhe-D3Pal-Ser-NMeTyr-DLys(Nic)-Leu-Lys(Isp)-Pro-DAlaNH2] (Isonicotinoyl-[azaGly][d2Nal][dPhe(4-Cl)][d3Pal]S[NMeY][dK](Nicotinoyl)L[Lys(iPr)]P[dA]-NH2), the Kb was 0.126 nM.
For `Cc1ccc(S(=O)(=O)NNC(=O)N[C@H](Cc2ccc3ccccc3c2)C(=O)N[C@H](Cc2ccc(Cl)cc2)C(=O)N[C@H](Cc2cccnc2)C(=O)N[C@@H](CO)C(=O)N(C)[C@@H](Cc2ccc(O)cc2)C(=O)N[C@H](CCCCNC(=O)c2cccnc2)C(=O)N[C@@H](CC(C)C)C(=O)N[C@@H](CCCCNC(C)C)C(=O)N2CCC[C@H]2C(=O)N[C@H](C)C(N)=O)cc1` [Example 37e, N-Tosyl-Azagly-D2Nal-D4ClPhe-D3Pal-Ser-NMeTyr-DLys(Nic)-Leu-Lys(Isp)-Pro-DAlaNH2] (X10-[d2Nal][dPhe(4-Cl)][d3Pal]S[NMeY][dK](Nicotinoyl)L[Lys(iPr)]P[dA]-NH2) the value was 0.0224 nM; for `CC(C)C[C@H](NC(=O)[C@@H](CCCCNC(=O)c1cccnc1)NC(=O)[C@H](Cc1ccc(O)cc1)N(C)C(=O)[C@H](CO)NC(=O)[C@@H](Cc1cccnc1)NC(=O)[C@@H](Cc1ccc(Cl)cc1)NC(=O)[C@@H](Cc1ccc2ccccc2c1)NC(=O)CNC(=O)[C@@H]1CCCO1)C(=O)N[C@@H](CCCCNC(C)C)C(=O)N1CCC[C@H]1C(=O)N(C)CC(N)=O` [Example 39, N-(S)-Tetrahydrofur-2-oyl-Gly-D2Nal-D4ClPhe-D3Pal-Ser-NMeTyr-DLys(Nicotinyl)-Leu-Lys(Isp)-Pro-SarNH2], 0.0155 nM; for `Cc1ccc(S(=O)(=O)N[C@H](Cc2ccc3ccccc3c2)C(=O)N[C@H](Cc2ccc(Cl)cc2)C(=O)N[C@H](Cc2cccnc2)C(=O)N[C@@H](CO)C(=O)N(C)[C@@H](Cc2ccc(O)cc2)C(=O)N[C@H](CCCNC(N)=O)C(=O)N[C@@H](CC(C)C)C(=O)N[C@@H](CCCNC(=N)N)C(=O)N2CCC[C@H]2C(=O)N[C@H](C)C(N)=O)cc1` [Example 66, N-Tosyl-D2Nal-D4ClPhe-D3Pal-Ser-NMeTyr-DCit-Leu-Arg-Pro-DAlaNH2] (Tos-[d2Nal][dPhe(4-Cl)][d3Pal]S[NMeY][dCit]LRP[dA]-NH2), 2.63 nM.
